Experimental findings from patent US20220002396A1, “METHODS OF TREATING CANCER WITH FARNESYLTRANSFERASE INHIBITORS” (Kura Oncology, Inc., priority 2018, published 2022) are described below.

Assay type in all cases: in vivo, human
In data set [1] the test system is advanced pancreatic adenocarcinoma. The experiment in a line: Randomized, double-blind, placebo-controlled study of gemcitabine+tipifarnib versus gemcitabine+placebo (Study INT-17 / INT-11). Here is the method: In a randomized, double-blind, placebo-controlled study of gemcitabine+tipifarnib versus gemcitabine+placebo in patients with advanced pancreatic adenocarcinoma previously untreated with systemic therapy, tipifarnib (R115777) was administered at a dosage amount of 200 mg twice a day, orally, and continuously (Study INT-17). Gemcitabine was administered intravenously at a dosage amount of 1,000 mg/m(2) weekly x 7 for 8 weeks, then weekly x 3 every 4 weeks. 686 patients were enrolled. The median overall survival for the experimental arm was 193 v 182 days for the control arm (P=0.75).

A further data set relates to previously untreated AML. The experiment in a line: Tipifarnib monotherapy in elderly patients with previously untreated AML (CTEP-20), outcome by IGF1/CXCL12 expression. Here is the method: (§1) Gene expression profile (GEP) data generated using RNA-Seq and the Affymetrix U133A gene-chip of tumor samples from 71 patients enrolled in tipifarnib trials (CTEP-20, KO-TIP-002, KO-TIP-004) were analyzed with respect to study outcomes and complemented with analyses of mRNA expression in data sets from the cBioportal for Cancer Genomics. Clinical trial information: NCT00027872, NCT02464228, NCT02807272.
Data from a study investigating tipifarnib monotherapy in elderly patients with previously untreated AML (CTEP-20) was examined in detail to determine the effect of the expression of CXCL12 and IGF1 on the response of the patients to tipifarnib.
The effect of IGF1/CXCL12 co-expression on patient outcome in tipifarnib was examined. In previously untreated AML, 3 subsets of patients were identified with respect to IGF1/CXCL12 expression (FIG. 2A). These subsets were 1) high IGF1, high CXCL12 (left boxplots), 2) intermediate IGF1, low CXCL12 (middle boxplots), and 3) low IGF1, variable CXCL12, (right boxplots).
When CXCL12 was at low levels and IGF1 was at intermediate levels, low CXCL12 levels translates to disease progression with 1 CR and 8 with progressive disease (PD) as outcome (FIG. 2C). When the IGF1 levels were low, CXCL12 had variable levels and six patients out of 15 experienced CR. […] Receiver-Operator-Characterisitics (ROC) curves for prediction of a CR in these patients confirmed that higher CXCL12 and lower IGF1 levels were predictive of complete responses in the AML patient population (FIG. 2E).

A further data set relates to CMML. The experiment in a line: Tipifarnib-treated CMML subjects with pre-treatment BM gene expression data. As to conditions: in 17 tipifarnib-treated CMML subjects. Here is the method:
as §1
Four objective responses and 1 tumor lysis syndrome were reported in 17 tipifarnib-treated CMML subjects with available pre-treatment BM gene expression data. CXCL12 expression (p=0.07) and the CXCL12/CXCR4 ratio (p=0.03) were predictive of those events while IGF1 expression levels were barely detectable in these patients.

A further data set concerns nodal PTCL. The experiment in a line: Tipifarnib monotherapy in nodal PTCL patients with pre-treatment GEP data. As to conditions: 13 nodal PTCL patients. Here is the method:
as §1
The effect of CXCL12 and IGF1 was also investigated in 13 nodal PTCL patients with pre-treatment GEP data who received tipifarnib monotherapy. […] Adjusting the IGFBP7 expression to the level of IGF1R expression also identified those patients as responders to therapy.

The test system of a further data set is breast cancer. Nature of the data set: Phase II study of tipifarnib in breast cancer patients (Study GBR-1). Here is the method:
Biomarkers in breast cancer were also examined for their relationship to CXCL12/IGF1 expression and to the activity of tipifarnib when administered to patients. A phase II study was performed with 76 patients treated with tipifarnib (Study GBR-1). Patients were tested for estrogen-receptor positivity (ER+) or negativity (ER−), progesterone receptor positivity (PGR+) or negativity (PGR−), and the presence or absence of TP53 mutation. Overall response rate in the study was 12%. Biomarker data was available for 41 patients.

The mark [2] stands for this setting: subset intermediate IGF1, low CXCL12.

With gemcitabine [gemcitabine+placebo], the median overall survival in data set [1] (686 patients enrolled, tipifarnib 200 mg twice a day orally, gemcitabine 1,000 mg/m(2) IV, P=0.75) amounted to 182 days. The “survival of patients not reporting versus reporting abdominal pain at study entry, within arm” value in data set [1] (FIG. 5B) is recorded as “not significantly different”. Besides, in data set [1] (all patients, per arm), the “Neutropenia grade > or =3” value was 30% and the “thrombocytopenia grade > or =3” value stood at 12%.
For the compound `Cn1cncc1[C@@](N)(c1ccc(Cl)cc1)c1ccc2c(c1)c(-c1cccc(Cl)c1)cc(=O)n2C` [tipifarnib], the “complete response (CR)” value in the data set with previously untreated AML (subset high IGF1, high CXCL12, out of 10 subjects) turned out to be 2 patients; in the data set on previously untreated AML (setting [2]) it was 1. Moreover, the “progressive disease (PD) as outcome” value in the data set on previously untreated AML (setting [2]) is recorded as 8. In the data set on CMML, the tumor lysis syndrome amounted to 1. Moreover, the “partial responses (PR)” value with nodal PTCL was 2. Moreover, the Overall response rate in the data set with breast cancer (76 patients treated) stood at 12%. The objective response rate in the data set with breast cancer (four patients with PGR(+) and ER(−) tumors) stood at 75%; in the data set with breast cancer (seven patients with PGR(+) and wild type TP53 tumors) it was 57%. Also, the RESPONSE result in the data set on breast cancer (one line per patient, PGR(+) ER(−) population) is recorded as “NO RESPONSE”.
